Source: the NIST ThermoML archive (doi:10.1007/s10765-010-0861-2)
± gives the expanded uncertainty stated by the source.

Tests used:
[1] = 101.33 kPa, Liquid; for mass density: Pycnometric method
[2] = xn = mol fraction of the nth substance listed; details: 308.15 K, 101 kPa, Liquid, Frequency=2 MHz

O=C1CCCN1 [2-pyrrolidinone]
[1]
Details | mass density [kg/m3] | speed of sound [m/s]
298.15 K | 1107.26 ± 1.6 | –
308.15 K | – | 1603 ± 7

c1ccccc1 [benzene]
[1], 298.15 K
Details | mass density [kg/m3] | speed of sound [m/s]
– | 873.62 ± 1.1 | 1298 ± 6

c1ccccc1 [benzene] + CCCO
[2]
Details | speed of sound [m/s]
x1 = 0.0852 | 1192 ± 6
x1 = 0.1733 | 1196 ± 6
x1 = 0.2644 | 1200 ± 6
x1 = 0.3059 | 1201 ± 6
x1 = 0.3586 | 1203 ± 6
x1 = 0.3995 | 1204 ± 6
x1 = 0.4561 | 1206 ± 6
x1 = 0.5274 | 1208 ± 6
x1 = 0.582 | 1210 ± 6
x1 = 0.6618 | 1213 ± 6
x1 = 0.7267 | 1216 ± 6
x1 = 0.7703 | 1219 ± 6
x1 = 0.883 | 1233 ± 6
x1 = 0.9335 | 1242 ± 6

CCCO [propan-1-ol]
[1], 298.15 K
Details | mass density [kg/m3] | speed of sound [m/s]
– | 799.28 ± 0.9 | 1188 ± 6

Cc1ccccc1 [toluene]
[1], 298.15 K
Details | mass density [kg/m3] | speed of sound [m/s]
– | 862.23 ± 1 | 1305 ± 6

Cc1ccccc1 [toluene] + CCCO
[2]
Details | speed of sound [m/s]
x1 = 0.0724 | 1193 ± 6
x1 = 0.1494 | 1199 ± 6
x1 = 0.2314 | 1204 ± 6
x1 = 0.319 | 1209 ± 6
x1 = 0.3586 | 1211 ± 6
x1 = 0.4352 | 1216 ± 6
x1 = 0.5131 | 1220 ± 6
x1 = 0.5724 | 1224 ± 6
x1 = 0.6211 | 1227 ± 6
x1 = 0.6846 | 1231 ± 6
x1 = 0.7376 | 1235 ± 6
x1 = 0.7829 | 1239 ± 6
x1 = 0.8635 | 1247 ± 6
x1 = 0.9243 | 1253 ± 6
